The text below walks through data of patent US9878984B2, “Anti-cancer compounds” (NORTHWESTERN UNIVERSITY, priority 2008, dated 2018).

Assay [1] concerns HeLa, PC-3M, and MDA-MB-231. Kind of assay: MTS growth inhibition assay, human cancer cell lines. The format is cell-based. The settings on record: 72 hr, MTS proliferation assay. How it is done: Cell Culture: HeLa (cervical carcinoma), WI-38 (normal human […] fibroblasts), and MDA-MB-231 (breast carcinoma), cells were cultured in DMEM (Invitrogen—Carlsbad, Calif.) and PC-3M (metastatic prostate carcinoma) cells were cultured in RPMI-1640. Peripheral blood mononuclear cells (PBMCs) were voluntarily collected from a healthy laboratory worker by standard sterile phlebotomy techniques and isolated using Vacutainer CPT collection tubes (BD Biosciences—Bedford, Mass.). PBMCs were isolated freshly for each experiment. All DMEM and RPMI-1640 media was supplemented with 10% FBS (Atlanta Biologicals—Lawrenceville, Ga.) and 100 U/mL penicillin and streptomycin (Invitrogen). […]
Growth Inhibition Assays: HeLa, MDA-MB-231, PC-3M, WI-38, and HUVEC cells were plated at 5,000 cells per well in 96 well plates and allowed to attach for 20 hr (8 hr for HeLa). […] Cell proliferation was measured at t=0 (time at start of treatment) and t=72 hr using MTS AQueous non-radioactive proliferation assay (Promega—Madison, Wis.). […] The absorbance at 490 nm in each well was read with a Spectramax 250 plate reader (Molecular Devices—Sunnyvale, Calif.). […] Data were fit to one site dose response curves in order to obtain specific growth inhibitory concentrations and the relative standard errors of the mean for these concentrations were calculated by the XLfit4 software. […]
In general terms: Formazan colour is commonly taken as a measure of viable cells.

Another assay concerns Chk2. The assay can be described thus: DNA damage response assay (pThr68-Chk2 / total Chk2 western blot). The class given is cell-based, human. The settings on record: HeLa cells, [GI99%], 20 hr, normalized to mitoxantrone. How it is done: DNA Damage Response Assay: 250,000 HeLa cells were plated in 35 mm culture dishes and allowed to attach for 8 hr and were then treated with the [GI99%] of each compound for 20 hr (total media volume was […] with 1% DMSO). After treatment cells were lysed in 150 μL detergent buffer containing 1:100 v/v protease inhibitor cocktail (Sigma—St. Louis, Mo.). Lysates were run on denaturing 12% acrylamide gels and transferred to nitrocellulose membranes. The membranes were blocked in blotto, incubated in anti-pThr68-Chk2 antibody (Cell Signaling—Danvers, Mass.) at 1:500 v/v dilution in blotto overnight 4° C., washed, incubated in HRP conjugated anti-rabbit secondary antibody (Jackson) at 1:5,000 v/v dilution in blotto for 1 hr, and then developed. The membranes were then stripped with a reducing buffer, blocked in blotto, incubated in anti-Chk2 antibody (Biolegend—San Diego, Calif.) at 1:500 v/v dilution in blotto overnight at 4° C., washed, incubated in HRP conjugated anti-mouse secondary antibody (Jackson) at 1:5,000 v/v dilution in blotto for 1 hr, and then developed. Membranes were developed with PicoWest Developing Solution (Pierce) and exposed to film. The intensities of bands were quantified as described in the previous section. The data are expressed as the average ratio of pThr68-Chk2 to total Chk2 as normalized to the mitoxantrone control in each of three independent experiments.
Topoisomerase inhibition by most mechanisms should cause activation of DNA damage response pathways because of the production of single and double strand DNA breaks, as is the case with amonafide. […] Therefore, measuring the DNA damage response at a fixed cytotoxic dose ([GI99%]) will determine the extent that DNA damage contributes to the cytotoxicity of these compounds. […] Activation of Chk2 was determined by measuring the ratio of pThr68-Chk2 to total Chk2 in HeLa cells treated with the [GI99%].
On the technique in general: Immunoblotting shows a protein as a band on a membrane.

With `CN(C)CCN1C(=O)c2cccc3c(N)ccc(c23)C1=O` [A1, 6-amino-2-[2-(dimethylamino)ethyl]-1H-benz[de]isoquinoline-1,3(2H)-dione], the growth inhibition potency result in assay [1] is given as “near identical to amonafide”.
Turning to `CN(C)CCN1C(=O)c2cccc3cc(N)cc(c23)C1=O` [amonafide, reference compound], in the assay on Chk2, the “DNA damage response (ratio of pThr68-Chk2 to total Chk2)” value is “evoked the strongest DNA damage response”.
